Measurements from patent publication US20250051458A1, “Methods for Treating Neurodegeneration Targeting IGF1/IGF1R” (The Schepens Eye Research Institute, Inc., priority 2021, published 2025).
“Also recorded” adds a separate entry of the source.

Tests used:
[1] = test system: human microglial cell line; test: qPCR of IL-6 induction in LPS+ATP-stimulated human microglial cell line (IGF1R agonist / IGF1 antibody screen); type: cell-based; details: treatment 6 hours after LPS+ATP; compared with various IGF1 antibodies
Method: FIG. 8. Screening for anti-human IGF1 agonist antibody with a counter-inflammatory effect on microglial activation. Result of qPCR measuring levels of pro-inflammatory cytokine IL-6 induction in human microglial cell line that were stimulated by LPS and ATP (LPS+ATP) followed by treatment with IGF1R agonist Rg5 or various IGF1 antibodies 6 hours after LTP+ATP administration. […] Error bar=SEM. *P<0.05 by one way ANOVA.
qPCR was used to measure levels of pro-inflammatory cytokine IL-6 induction in a human microglial cell line stimulated by LPS and ATP (LPS+ATP) followed by treatment with IGF1R agonist Rg5 or various IGF1 antibodies 6 hours after LTP+ATP administration.

[2] = test system: ischemic optic neuropathy in mice; test: Mouse model of ischemic optic neuropathy, intravitreal injection; type: in vivo; details: intravitreal injections at days 1, 8 and 17 post injury; 4 weeks after induction
From the text: FIG. 9. Rescue of RGC function and vision by intravitreal injection of IGF1R agonist in a mouse model of ischemic optic neuropathy. Quantifications of electroretinogram positive scotopic threshold response (pSTR) amplitudes, visual acuity and contrast sensitivity before (Baseline) and at 4 weeks (4 wks) after induction of ischemic optic neuropathy in mice received intravitreal injections of control or RG5 IGF1R agonist at day 1, 8 and 17 post injury. Error bar=SEM. *P<0.05 by one way ANOVA.
The adult mice were dark adapted in a dark adaptation chamber overnight before conducting ERG. […] The pSTR was measured from the baseline to the peak of the positive deflection. […]
The mouse was placed on a small platform in the middle of the optomotor chamber. […] The contrast at a given spatial frequency is calculated using the formula (Lmax−Lmin)/(Lmax+Lmin) where Lmax is the brightness (in cd/m^2) of the white stripe, and Lmin is the brightness of the black stripe (in cd/m^2). Contrast level, stripe width, grating speed, and direction of stripe movement (clockwise vs. counterclockwise) were measured. According to the tracking of head movements on the mouse to the moving stripes, the visual acuity and contrast sensitivity can be measured. […] By changing the stripe width and the contrast, visual acuity and contrast sensitivity of mice can be assessed. […]

[3] = target: IGF-1R on mouse microglia (primary retinal and brain microglia, BV2 cell line) (mouse) (UniProt Q60751); test: cell-based or functional assay
Chain of UniProt Q60751 (Q60751 31-1373): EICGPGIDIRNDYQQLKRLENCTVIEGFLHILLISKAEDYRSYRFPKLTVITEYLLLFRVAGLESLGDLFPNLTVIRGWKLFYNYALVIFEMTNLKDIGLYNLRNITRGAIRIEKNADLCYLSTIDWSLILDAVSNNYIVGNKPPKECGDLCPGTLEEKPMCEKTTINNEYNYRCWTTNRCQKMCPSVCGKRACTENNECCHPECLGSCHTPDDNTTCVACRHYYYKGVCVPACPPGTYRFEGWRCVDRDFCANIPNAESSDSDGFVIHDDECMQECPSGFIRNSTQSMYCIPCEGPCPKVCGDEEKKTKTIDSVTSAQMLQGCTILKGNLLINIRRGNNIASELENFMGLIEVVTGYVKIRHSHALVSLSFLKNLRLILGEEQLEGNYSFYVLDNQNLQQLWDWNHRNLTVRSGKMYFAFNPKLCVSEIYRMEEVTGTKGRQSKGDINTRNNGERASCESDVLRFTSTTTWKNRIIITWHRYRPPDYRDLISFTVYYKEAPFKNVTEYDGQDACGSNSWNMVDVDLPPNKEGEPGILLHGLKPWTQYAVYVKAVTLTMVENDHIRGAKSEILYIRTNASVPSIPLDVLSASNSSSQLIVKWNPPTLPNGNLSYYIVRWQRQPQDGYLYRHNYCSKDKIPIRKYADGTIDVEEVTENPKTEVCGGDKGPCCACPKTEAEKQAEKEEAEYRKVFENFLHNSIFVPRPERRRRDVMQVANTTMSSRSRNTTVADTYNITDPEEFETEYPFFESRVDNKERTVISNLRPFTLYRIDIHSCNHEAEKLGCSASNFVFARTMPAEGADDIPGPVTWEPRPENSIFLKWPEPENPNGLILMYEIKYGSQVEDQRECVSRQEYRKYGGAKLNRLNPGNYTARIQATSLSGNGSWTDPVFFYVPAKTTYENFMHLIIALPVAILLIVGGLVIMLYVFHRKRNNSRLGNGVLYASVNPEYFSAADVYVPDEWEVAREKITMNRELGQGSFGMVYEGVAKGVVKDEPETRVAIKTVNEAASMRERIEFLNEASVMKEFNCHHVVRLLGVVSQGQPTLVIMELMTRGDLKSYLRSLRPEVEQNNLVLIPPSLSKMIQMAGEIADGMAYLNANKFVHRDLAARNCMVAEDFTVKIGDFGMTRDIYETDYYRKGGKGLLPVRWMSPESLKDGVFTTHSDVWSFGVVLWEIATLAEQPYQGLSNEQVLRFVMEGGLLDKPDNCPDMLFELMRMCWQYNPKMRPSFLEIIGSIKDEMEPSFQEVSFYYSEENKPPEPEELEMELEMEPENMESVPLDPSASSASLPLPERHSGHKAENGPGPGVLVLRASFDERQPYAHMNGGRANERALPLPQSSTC

PI3K phosphorylation (Western blot, BV2 microglia) [3] [fold] | Molecule | Anti-inflammatory effect on IL-6 induction (qPCR) [1] | RGC function (pSTR amplitudes) and vision (visual acuity, contrast sensitivity) [2]
 | CC(C)=CC/C=C(\C)[C@H]1CC[C@]2(C)[C@@H]1[C@H](O)C[C@@H]1[C@@]3(C)CC[C@H](O[C@@H]4O[C@H](CO)[C@@H](O)[C@H](O)[C@H]4O[C@@H]4O[C@H](CO)[C@@H](O)[C@H](O)[C@H]4O)C(C)(C)[C@@H]3CC[C@]12C [Rg5, ginsenoside RG5] | largest anti-inflammatory effect; also recorded: greatest anti-inflammatory effect | protects RGC function and vision against ischemic optic neuropathy-induced functional loss
8 | insulin-like growth factor binding protein like protein 1 (IGFBPL1), recombinant (R&D system, 4130-BL) (from UniProt Q80W15 18-270) (ligand) |  | 
